Data taken from US20230085307A1, “PYRIDAZINONE COMPOUND AND HERBICIDE” (NISSAN CHEMICAL CORPORATION, priority 2019, published 2023).

Tests used:
[1] = test system: Japanese bulrush; assay: Test Example 1: herbicidal activity, application before weed generation under submerged conditions (Table 16, symbol B); assay type: in vivo, Japanese bulrush (Schoenoplectus juncoides); conditions: 320 g/ha applied herbicide
Outline: (§1)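 Submerged Wagner pots (alluvial soil, 4 cm water) sown with weed seeds and planted with 2.5-leaf rice seedlings; emulsifiable concentrate diluted in water applied to water surface on sowing day. Held in greenhouse at 25-30 °C; injury scored 0-5 by herbicidal rate after three weeks.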

[2] = test system: oval-leafed pondweed; assay: Test Example 1: herbicidal activity, application before weed generation under submerged conditions (Table 16, symbol C); assay type: in vivo, oval-leafed pondweed (Monochoria vaginalis); conditions: 320 g/ha applied herbicide
Outline: as §1

[3] = test system: Japanese bulrush; assay: Test Example 2: herbicidal activity, application during weed generation under submerged conditions (Table 17, symbol B); assay type: in vivo, Japanese bulrush (Schoenoplectus juncoides); conditions: AAH 320 g/ha; application during weed generation, submerged conditions
Outline: (§2)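 Herbicide emulsion, diluted with water to the chosen amount, is applied onto 4 cm floodwater over alluvial soil where the weeds were co-sown and raised at 25–30° C. Application timing: 1–2 leaves. Assessment: three weeks afterwards.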

[4] = test system: oval-leafed pondweed; assay: Test Example 2: herbicidal activity, application during weed generation under submerged conditions (Table 17, symbol C); assay type: in vivo, oval-leafed pondweed (Monochoria vaginalis); conditions: AAH 320 g/ha; application during weed generation, submerged conditions
Outline: as §2

[5] = test system: rice flat sedge; assay: Test Example 3: herbicidal effect by foliage application, Wagner pot (Table 18, symbol E); assay type: in vivo, rice flat sedge (Cyperus iria); conditions: amount of applied herbicide 320 g/ha
Outline: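 Plants were sown in alluvial soil held under 0.1–0.5 cm standing water and grown 14 days in a greenhouse at 25–30 °C. An emulsifiable formulation, water-diluted to the set dose, was then sprayed onto the foliage, and effects were scored three weeks later using previously defined criteria.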

[6] = test system: green foxtail; assay: Test Example 4: herbicidal effect by soil treatment (Table 19, symbol G); assay type: in vivo, green foxtail (Setaria viridis); conditions: amount of applied herbicide 320 g/ha
Outline: (§3)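 Applied as a water-diluted emulsion, the compound was sprayed onto soil covering newly sown seeds. Evaluation came three weeks after application, in a greenhouse held at 25° C. to 30° C.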

[7] = test system: wild oat; assay: Test Example 4: herbicidal effect by soil treatment (Table 19, symbol I); assay type: in vivo, wild oat (Avena fatua); conditions: amount of applied herbicide 320 g/ha
Outline: as §3

[8] = test system: Italian ryegrass; assay: Test Example 4: herbicidal effect by soil treatment (Table 19, symbol K); assay type: in vivo, Italian ryegrass (Lolium multiflorum); conditions: amount of applied herbicide 320 g/ha
Outline: as §3

[9] = test system: windgrass; assay: Test Example 4: herbicidal effect by soil treatment (Table 19, symbol L); assay type: in vivo, windgrass (Apera spica-venti); conditions: amount of applied herbicide 320 g/ha
Outline: as §3

[10] = test system: velvetleaf; assay: Test Example 4: herbicidal effect by soil treatment (Table 19, symbol M); assay type: in vivo, velvetleaf (Abutilon theophrasti); conditions: amount of applied herbicide 320 g/ha
Outline: as §3

[11] = test system: persian speedwell; assay: Test Example 4: herbicidal effect by soil treatment (Table 19, symbol R); assay type: in vivo, Persian speedwell (Veronica persica); conditions: amount of applied herbicide 320 g/ha
Outline: as §3

[12] = test system: southern crabgrass; assay: Test Example 5: herbicidal effect by foliage application, plastic box (Table 20, symbol F); assay type: in vivo, southern crabgrass (Digitaria ciliaris); conditions: foliage application, AAH 320 g/ha, evaluated three weeks after application
Outline: (§4)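 Sow seeds spot-wise in sterilized diluvial soil; cover with ~1.5 cm soil. Grow 14 days in greenhouse, 25° C. to 30° C. Spray foliage with emulsion diluted to predetermined amount. Rate effect after 3 weeks.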

[13] = test system: green foxtail; assay: Test Example 5: herbicidal effect by foliage application, plastic box (Table 20, symbol G); assay type: in vivo, green foxtail (Setaria viridis); conditions: foliage application, AAH 320 g/ha, evaluated three weeks after application
Outline: as §4

[14] = test system: windgrass; assay: Test Example 5: herbicidal effect by foliage application, plastic box (Table 20, symbol L); assay type: in vivo, windgrass (Apera spica-venti); conditions: foliage application, AAH 320 g/ha, evaluated three weeks after application
Outline: as §4

[15] = test system: lambsquarters; assay: Test Example 5: herbicidal effect by foliage application, plastic box (Table 20, symbol O); assay type: in vivo, lambsquarters (Chenopodium album); conditions: foliage application, AAH 320 g/ha, evaluated three weeks after application
Outline: as §4

[16] = test system: chickweed; assay: Test Example 5: herbicidal effect by foliage application, plastic box (Table 20, symbol P); assay type: in vivo, common chickweed (Stellaria media); conditions: foliage application, AAH 320 g/ha, evaluated three weeks after application
Outline: as §4

Compound	Herbicidal effect on B: Japanese bulrush (grade 0-5) [1]	Herbicidal effect on C: oval-leafed pondweed (grade 0-5) [2]	herbicidal effect rating, B: Japanese bulrush [3]	herbicidal effect rating, C: oval-leafed pondweed [4]	herbicidal effect on E: rice flat sedge [5]	herbicidal effect on G: green foxtail [6]	herbicidal effect on I: wild oat [7]	herbicidal effect on K: Italian ryegrass [8]	herbicidal effect on L: windgrass [9]	herbicidal effect on M: velvetleaf [10]	herbicidal effect on R: persian speedwell [11]	F: southern crabgrass, herbicidal effect (criteria 0-5) [12]	G: green foxtail, herbicidal effect (criteria 0-5) [13]	L: windgrass, herbicidal effect (criteria 0-5) [14]	O: lambsquarters, herbicidal effect (criteria 0-5) [15]	P: chickweed, herbicidal effect (criteria 0-5) [16]
Cc1nn(C)c(=O)c(-c2c(-c3ccc(S(C)(=O)=O)cc3)sc3ccc(F)cc23)c1O [2-258]	3 (Herbicidal rate of 40% or more and less than 70%)	0 (Herbicidal rate of 5% or less (almost no effect))	0 (Herbicidal rate of 5% or less (almost no effect))	3 (Herbicidal rate of 40% or more and less than 70%)	5 (Herbicidal rate of 90% or more (almost completely withered))	5 (Herbicidal rate of 90% or more (almost completely withered))	3 (Herbicidal rate of 40% or more and less than 70%)	5 (Herbicidal rate of 90% or more (almost completely withered))	4 (Herbicidal rate of 70% or more and less than 90%)	3 (Herbicidal rate of 40% or more and less than 70%)	5 (Herbicidal rate of 90% or more (almost completely withered))	5 (Herbicidal rate of 90% or more (almost completely withered))	5 (Herbicidal rate of 90% or more (almost completely withered))	5 (Herbicidal rate of 90% or more (almost completely withered))	5 (Herbicidal rate of 90% or more (almost completely withered))	5 (Herbicidal rate of 90% or more (almost completely withered))
COCC(=O)Oc1c(C)nn(C)c(=O)c1-c1c(-c2ccc(OC(F)F)cc2)sc2ccc(F)cc12 [2-283]	5 (Herbicidal rate of 90% or more (almost completely withered))	3 (Herbicidal rate of 40% or more and less than 70%)	3 (Herbicidal rate of 40% or more and less than 70%)	4 (Herbicidal rate of 70% or more and less than 90%)	5 (Herbicidal rate of 90% or more (almost completely withered))	5 (Herbicidal rate of 90% or more (almost completely withered))	0 (Herbicidal rate of 5% or less (almost no effect))	5 (Herbicidal rate of 90% or more (almost completely withered))	4 (Herbicidal rate of 70% or more and less than 90%)	5 (Herbicidal rate of 90% or more (almost completely withered))	5 (Herbicidal rate of 90% or more (almost completely withered))	5 (Herbicidal rate of 90% or more (almost completely withered))	5 (Herbicidal rate of 90% or more (almost completely withered))	5 (Herbicidal rate of 90% or more (almost completely withered))	5 (Herbicidal rate of 90% or more (almost completely withered))	5 (Herbicidal rate of 90% or more (almost completely withered))
